From ChEMBL document CHEMBL1129595, “Potent 6-desfluoro-8-methylquinolones as new lead compounds in antibacterial chemotherapy” (J Med Chem, 1996)
Converted amounts (≈) assume the structure as drawn.

Experiments:
Enterococcus faecalis [1] = assay: In vitro antibacterial activity against Enterococcus faecalis LEP Br; format: functional
Enterococcus faecalis [2] = assay: In vitro antibacterial activity against Enterococcus faecalis UCMC 39690; format: functional
Enterobacter cloacae = assay: In vitro antibacterial activity against Enterobacter cloacae OMNFI 174; format: functional
Escherichia coli [3] = assay: In vitro antibacterial activity against Escherichia coli 120; format: functional
Escherichia coli [4] = assay: In vitro antibacterial activity against Escherichia coli ATCC 25922; format: functional
DNA gyrase = DNA gyrase (Escherichia coli, UniProt P0AES4+P0AES6); assay: Inhibitory effect against Escherichia coli Gyrase in Supercoiling assay; format: protein-complex assay
Haemophilus influenzae = assay: In vitro antibacterial activity against Haemophilus influenzae; format: functional
Klebsiella pneumoniae = assay: In vitro antibacterial activity against Klebsiella pneumoniae ATCC 10031; format: functional
Proteus mirabilis = assay: In vitro antibacterial activity against Proteus mirabilis OBT 505; format: functional
Pseudomonas aeruginosa [5] = assay: In vitro antibacterial activity against Pseudomonas aeruginosa OBT 307; format: functional
Proteus vulgaris = assay: In vitro antibacterial activity against Proteus vulgaris CNUR 6; format: functional
Staphylococcus aureus [6] = assay: In vitro antibacterial activity against Staphylococcus aureus ATCC 29213; format: functional
Staphylococcus aureus [7] = assay: In vitro antibacterial activity against Staphylococcus aureus M-R POMM 6214; format: functional
Staphylococcus aureus [8] = assay: In vitro antibacterial activity against Staphylococcus aureus MPR 5; format: functional
Staphylococcus aureus [9] = assay: In vitro antibacterial activity against Staphylococcus aureus CPX-R OBT 687; format: functional
Streptococcus pneumoniae = assay: In vitro antibacterial activity against Streptococcus pneumoniae I 0.43; format: functional
Streptococcus pyogenes = assay: In vitro antibacterial activity against Streptococcus pyogenes OMNFI BI; format: functional
[10] = Mean MIC against gram positive; format: functional
[11] = Mean MIC against gram negative; format: functional
Escherichia coli [12] = assay: In vitro antibacterial activity against Escherichia coliCPX-R OBT 431; format: functional
Pseudomonas aeruginosa [13] = assay: In vitro antibacterial activity against Pseudomonas aeruginosa […] 9027; format: functional

| SMILES | MIC (Enterococcus faecalis [1]) | MIC (Enterococcus faecalis [2]) | MIC (Enterobacter cloacae) | MIC (Escherichia coli [3]) | MIC (Escherichia coli [4]) | IC50 (DNA gyrase) | MIC (Haemophilus influenzae) | MIC (Klebsiella pneumoniae) | MIC (Proteus mirabilis) | MIC (Pseudomonas aeruginosa [5]) | MIC (Proteus vulgaris) | MIC (Staphylococcus aureus [6]) | MIC (Staphylococcus aureus [7]) | MIC (Staphylococcus aureus [8]) | MIC (Staphylococcus aureus [9]) | MIC (Streptococcus pneumoniae) | MIC (Streptococcus pyogenes) | MIC [10] | MIC [11] | MIC (Pseudomonas aeruginosa [13]) | also measured |
| --- | --- | --- | --- | --- | --- | --- | --- | --- | --- | --- | --- | --- | --- | --- | --- | --- | --- | --- | --- | --- | --- |
| Cc1c(N2CCc3ccccc3C2)c(N)cc2c(=O)c(C(=O)O)cn(C3CC3)c12 | 0.25 µg/mL (≈ 0.642 µM) | 0.125 µg/mL (≈ 0.321 µM) | 0.5 µg/mL (≈ 1.28 µM) | 0.125 µg/mL (≈ 0.321 µM) | 0.125 µg/mL (≈ 0.321 µM) | 9.24 µM | < 0.016 µg/mL | 0.03 µg/mL (≈ 0.077 µM) | > 16 µg/mL | > 16 µg/mL | 8 µg/mL (≈ 20.5 µM) | < 0.016 µg/mL | < 0.016 µg/mL | < 0.016 µg/mL | 2 µg/mL (≈ 5.14 µM) | 0.25 µg/mL (≈ 0.642 µM) | < 0.016 µg/mL | 0.075 µg/mL (≈ 0.193 µM) | 0.998 µg/mL (≈ 2.56 µM) | 8 µg/mL (≈ 20.5 µM) | MIC (Escherichia coli [12]): > 16 µg/mL |
| Cc1c(N2CCCCC2)c(F)cc2c(=O)c(C(=O)O)cn(C3CC3)c12 | 0.03 µg/mL (≈ 0.0871 µM) | < 0.016 µg/mL | 0.5 µg/mL (≈ 1.45 µM) | < 0.016 µg/mL | < 0.016 µg/mL | 6.97 µM | < 0.016 µg/mL | < 0.016 µg/mL | 1 µg/mL (≈ 2.9 µM) | 4 µg/mL (≈ 11.6 µM) | 2 µg/mL (≈ 5.81 µM) | < 0.016 µg/mL | < 0.016 µg/mL | < 0.016 µg/mL | 0.125 µg/mL (≈ 0.363 µM) | < 0.016 µg/mL | < 0.016 µg/mL | 0.022 µg/mL (≈ 0.0639 µM) | 0.29 µg/mL (≈ 0.842 µM) | 1 µg/mL (≈ 2.9 µM) | MIC (Escherichia coli [12]): 16 µg/mL (≈ 46.5 µM) |
| Cc1c(N2CCCCC2)ccc2c(=O)c(C(=O)O)cn(C3CC3)c12 | 1 µg/mL (≈ 3.06 µM) | 0.03 µg/mL (≈ 0.0919 µM) | 0.25 µg/mL (≈ 0.766 µM) | 0.03 µg/mL (≈ 0.0919 µM) | 0.03 µg/mL (≈ 0.0919 µM) | 10.1 µM | < 0.016 µg/mL | < 0.016 µg/mL | 4 µg/mL (≈ 12.3 µM) | 16 µg/mL (≈ 49 µM) | 8 µg/mL (≈ 24.5 µM) | < 0.016 µg/mL | < 0.016 µg/mL | < 0.016 µg/mL | 1 µg/mL (≈ 3.06 µM) | < 0.016 µg/mL | 0.03 µg/mL (≈ 0.0919 µM) | 0.052 µg/mL (≈ 0.159 µM) | 0.534 µg/mL (≈ 1.64 µM) | 4 µg/mL (≈ 12.3 µM) | MIC (Escherichia coli [12]): > 16 µg/mL |
| Cc1c(N2CCc3ccccc3C2)ccc2c(=O)c(C(=O)O)cn(C3CC3)c12 | 1 µg/mL (≈ 2.67 µM) | 0.5 µg/mL (≈ 1.34 µM) | 0.03 µg/mL (≈ 0.0801 µM) | 2 µg/mL (≈ 5.34 µM) | 1 µg/mL (≈ 2.67 µM) | 20.8 µM | 0.06 µg/mL (≈ 0.16 µM) | 0.125 µg/mL (≈ 0.334 µM) | > 16 µg/mL | > 16 µg/mL | > 16 µg/mL | < 0.016 µg/mL | 0.25 µg/mL (≈ 0.668 µM) | 0.03 µg/mL (≈ 0.0801 µM) | 2 µg/mL (≈ 5.34 µM) | 1 µg/mL (≈ 2.67 µM) | 0.25 µg/mL (≈ 0.668 µM) | 0.272 µg/mL (≈ 0.726 µM) | 1.85 µg/mL (≈ 4.94 µM) | > 16 µg/mL | MIC (Escherichia coli [12]): > 16 µg/mL |
| Cc1c(N2CCN(C)CC2)ccc2c(=O)c(C(=O)O)cn(C3CC3)c12 | 2 µg/mL (≈ 5.86 µM) | 1 µg/mL (≈ 2.93 µM) | 0.25 µg/mL (≈ 0.732 µM) | 0.06 µg/mL (≈ 0.176 µM) | 0.06 µg/mL (≈ 0.176 µM) | 83.5 µM | 0.06 µg/mL (≈ 0.176 µM) | < 0.016 µg/mL | 2 µg/mL (≈ 5.86 µM) | 16 µg/mL (≈ 46.9 µM) | 8 µg/mL (≈ 23.4 µM) | 0.25 µg/mL (≈ 0.732 µM) | 0.5 µg/mL (≈ 1.46 µM) | 0.25 µg/mL (≈ 0.732 µM) | 8 µg/mL (≈ 23.4 µM) | 2 µg/mL (≈ 5.86 µM) | 2 µg/mL (≈ 5.86 µM) | 1.09 µg/mL (≈ 3.19 µM) |  | 2 µg/mL (≈ 5.86 µM) | Mean MIC [10]: 0.609 µg/mL; MIC (Escherichia coli [12]): > 16 µg/mL |
| Cc1c(N2CCN(C)CC2)c(F)cc2c(=O)c(C(=O)O)cn(C3CC3)c12 | 0.25 µg/mL (≈ 0.696 µM) | 0.271 µg/mL (≈ 0.754 µM) | 0.125 µg/mL (≈ 0.348 µM) | < 0.016 µg/mL | < 0.016 µg/mL | 16.4 µM | < 0.016 µg/mL | < 0.016 µg/mL | 0.5 µg/mL (≈ 1.39 µM) | 0.2 µg/mL (≈ 0.556 µM) | 0.5 µg/mL (≈ 1.39 µM) | 0.125 µg/mL (≈ 0.348 µM) | 0.125 µg/mL (≈ 0.348 µM) | 0.06 µg/mL (≈ 0.167 µM) | 2 µg/mL (≈ 5.56 µM) | 1 µg/mL (≈ 2.78 µM) | 0.25 µg/mL (≈ 0.696 µM) | 0.271 µg/mL (≈ 0.754 µM) | 0.155 µg/mL (≈ 0.431 µM) | 0.5 µg/mL (≈ 1.39 µM) | MIC (Escherichia coli [12]): 4 µg/mL (≈ 11.1 µM) |
| CN1CCN(c2cc3c(cc2F)c(=O)c(C(=O)O)cn3C2CC2)CC1 | 0.5 µg/mL (≈ 1.45 µM) | 0.25 µg/mL (≈ 0.724 µM) | < 0.016 µg/mL | < 0.016 µg/mL | < 0.016 µg/mL | 4.34 µM | < 0.016 µg/mL | < 0.016 µg/mL | 0.25 µg/mL (≈ 0.724 µM) | 0.25 µg/mL (≈ 0.724 µM) | 0.5 µg/mL (≈ 1.45 µM) | 0.125 µg/mL (≈ 0.362 µM) | 1 µg/mL (≈ 2.9 µM) | 0.125 µg/mL (≈ 0.362 µM) | 16 µg/mL (≈ 46.3 µM) | 0.5 µg/mL (≈ 1.45 µM) | 2 µg/mL (≈ 5.79 µM) | 0.648 µg/mL (≈ 1.88 µM) | 0.11 µg/mL (≈ 0.318 µM) | 0.5 µg/mL (≈ 1.45 µM) | MIC (Escherichia coli [12]): > 16 µg/mL |
| O=C(O)c1cn(C2CC2)c2cc(N3CCNCC3)c(F)cc2c1=O [CIPROFLOXACIN] | 1 µg/mL (≈ 3.02 µM) | 0.5 µg/mL (≈ 1.51 µM) |  | < 0.016 µg/mL | < 0.016 µg/mL |  | < 0.016 µg/mL | < 0.016 µg/mL | 0.06 µg/mL (≈ 0.181 µM) | 1 µg/mL (≈ 3.02 µM) | 0.5 µg/mL (≈ 1.51 µM) | 0.5 µg/mL (≈ 1.51 µM) | 1 µg/mL (≈ 3.02 µM) | 0.25 µg/mL (≈ 0.754 µM) | > 16 µg/mL | 1 µg/mL (≈ 3.02 µM) | 0.5 µg/mL (≈ 1.51 µM) | 0.917 µg/mL (≈ 2.77 µM) | 0.083 µg/mL (≈ 0.25 µM) | 0.06 µg/mL (≈ 0.181 µM) |  |
